From ChEMBL document CHEMBL4507310, “Data for DCP probe A-1211212” (2021) come the findings set out here.

The target in assay [1] is Serine/threonine-protein kinase TAO2 (Homo sapiens) (UniProt Q9UL54). Conditions: Compound concentration 1000.0 nM; call rule not given here.
Assay [2] deals with Sodium-dependent dopamine transporter (Homo sapiens, UniProt Q01959). The assay is described as follows: GPCRScan assay: inhibition of DAT. Set-up: radioligand conc. used [nm] 3.6 – 16.0, parental cells stable HEK.
Assay [3] addresses Casein kinase I isoform alpha (Homo sapiens) (UniProt P48729). Conditions: Compound concentration 1000.0 nM.
The target in assay [4] is Calcium/calmodulin-dependent protein kinase type II subunit gamma (Homo sapiens) (UniProt Q13555). Conditions: Compound concentration 1000.0 nM.
Chain of Calcium/calmodulin-dependent protein kinase type II subunit gamma (Homo sapiens) (Q13555 whole entry): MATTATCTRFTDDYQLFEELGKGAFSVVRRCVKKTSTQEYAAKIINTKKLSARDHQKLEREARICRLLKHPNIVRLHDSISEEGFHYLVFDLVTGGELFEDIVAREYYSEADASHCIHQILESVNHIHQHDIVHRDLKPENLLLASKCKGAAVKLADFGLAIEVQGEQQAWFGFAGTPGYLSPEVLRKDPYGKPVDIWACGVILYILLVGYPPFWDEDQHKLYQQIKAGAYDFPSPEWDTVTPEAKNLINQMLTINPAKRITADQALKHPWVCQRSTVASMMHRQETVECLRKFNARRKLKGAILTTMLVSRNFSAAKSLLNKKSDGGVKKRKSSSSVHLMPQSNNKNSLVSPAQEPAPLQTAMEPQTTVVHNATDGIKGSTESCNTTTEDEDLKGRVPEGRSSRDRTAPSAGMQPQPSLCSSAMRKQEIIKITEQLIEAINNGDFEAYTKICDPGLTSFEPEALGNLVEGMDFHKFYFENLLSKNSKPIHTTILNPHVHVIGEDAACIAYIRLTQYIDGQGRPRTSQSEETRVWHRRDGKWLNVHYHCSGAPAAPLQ
Assay [5] deals with Vascular endothelial growth factor receptor 2 (Homo sapiens) (UniProt P35968). Conditions: Compound concentration 1000.0 nM.
Chain of Vascular endothelial growth factor receptor 2 (Homo sapiens) (P35968 whole entry): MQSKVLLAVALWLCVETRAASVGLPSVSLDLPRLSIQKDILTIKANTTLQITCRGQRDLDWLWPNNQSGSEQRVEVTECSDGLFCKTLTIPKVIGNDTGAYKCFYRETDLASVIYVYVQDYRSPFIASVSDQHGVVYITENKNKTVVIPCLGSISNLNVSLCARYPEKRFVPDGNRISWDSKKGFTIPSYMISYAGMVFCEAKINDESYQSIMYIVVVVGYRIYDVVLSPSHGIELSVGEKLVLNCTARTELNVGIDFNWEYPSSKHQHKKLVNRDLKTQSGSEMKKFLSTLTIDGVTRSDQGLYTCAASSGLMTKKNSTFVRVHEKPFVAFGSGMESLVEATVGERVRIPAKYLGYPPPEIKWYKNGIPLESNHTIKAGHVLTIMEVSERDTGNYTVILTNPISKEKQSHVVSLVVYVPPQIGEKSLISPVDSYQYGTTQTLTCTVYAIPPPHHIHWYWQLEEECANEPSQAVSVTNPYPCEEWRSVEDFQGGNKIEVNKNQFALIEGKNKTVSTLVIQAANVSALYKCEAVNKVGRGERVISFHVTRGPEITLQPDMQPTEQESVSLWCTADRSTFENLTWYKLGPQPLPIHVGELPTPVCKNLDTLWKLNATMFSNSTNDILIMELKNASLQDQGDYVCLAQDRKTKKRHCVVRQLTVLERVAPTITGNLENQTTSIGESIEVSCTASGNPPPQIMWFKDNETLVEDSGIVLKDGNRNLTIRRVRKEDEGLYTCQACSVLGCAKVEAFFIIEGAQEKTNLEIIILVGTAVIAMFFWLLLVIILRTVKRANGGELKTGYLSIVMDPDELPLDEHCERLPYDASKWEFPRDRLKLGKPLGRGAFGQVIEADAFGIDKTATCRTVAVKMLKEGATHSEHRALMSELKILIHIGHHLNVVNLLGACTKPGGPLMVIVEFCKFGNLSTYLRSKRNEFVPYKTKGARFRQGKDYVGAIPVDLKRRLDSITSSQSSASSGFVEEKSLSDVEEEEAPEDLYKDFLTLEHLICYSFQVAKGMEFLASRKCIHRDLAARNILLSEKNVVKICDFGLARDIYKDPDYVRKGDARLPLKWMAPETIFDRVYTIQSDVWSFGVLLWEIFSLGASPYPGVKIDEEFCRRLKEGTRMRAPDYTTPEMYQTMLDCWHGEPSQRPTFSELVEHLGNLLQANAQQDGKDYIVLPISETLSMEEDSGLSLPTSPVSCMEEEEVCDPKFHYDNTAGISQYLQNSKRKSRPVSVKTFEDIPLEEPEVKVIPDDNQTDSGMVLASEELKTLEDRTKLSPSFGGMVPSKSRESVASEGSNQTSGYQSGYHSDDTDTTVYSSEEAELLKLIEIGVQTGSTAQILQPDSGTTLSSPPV
In assay [6] the target is Alpha-1D adrenergic receptor (Homo sapiens, UniProt P25100). The assay is described as follows: GPCRScan assay: inhibition of Alpha1D. Also on record: radioligand conc. used [nm] 0.3 – 1.0, parental cells stable.
For assay [7], the system named is Epidermal growth factor receptor (Homo sapiens), P00533 [UNDEFINED MUTATION]. Conditions: Compound concentration 1000.0 nM.
Chain of Epidermal growth factor receptor (Homo sapiens), P00533 [UNDEFINED MUTATION] (P00533 whole entry, looked up, change not shown): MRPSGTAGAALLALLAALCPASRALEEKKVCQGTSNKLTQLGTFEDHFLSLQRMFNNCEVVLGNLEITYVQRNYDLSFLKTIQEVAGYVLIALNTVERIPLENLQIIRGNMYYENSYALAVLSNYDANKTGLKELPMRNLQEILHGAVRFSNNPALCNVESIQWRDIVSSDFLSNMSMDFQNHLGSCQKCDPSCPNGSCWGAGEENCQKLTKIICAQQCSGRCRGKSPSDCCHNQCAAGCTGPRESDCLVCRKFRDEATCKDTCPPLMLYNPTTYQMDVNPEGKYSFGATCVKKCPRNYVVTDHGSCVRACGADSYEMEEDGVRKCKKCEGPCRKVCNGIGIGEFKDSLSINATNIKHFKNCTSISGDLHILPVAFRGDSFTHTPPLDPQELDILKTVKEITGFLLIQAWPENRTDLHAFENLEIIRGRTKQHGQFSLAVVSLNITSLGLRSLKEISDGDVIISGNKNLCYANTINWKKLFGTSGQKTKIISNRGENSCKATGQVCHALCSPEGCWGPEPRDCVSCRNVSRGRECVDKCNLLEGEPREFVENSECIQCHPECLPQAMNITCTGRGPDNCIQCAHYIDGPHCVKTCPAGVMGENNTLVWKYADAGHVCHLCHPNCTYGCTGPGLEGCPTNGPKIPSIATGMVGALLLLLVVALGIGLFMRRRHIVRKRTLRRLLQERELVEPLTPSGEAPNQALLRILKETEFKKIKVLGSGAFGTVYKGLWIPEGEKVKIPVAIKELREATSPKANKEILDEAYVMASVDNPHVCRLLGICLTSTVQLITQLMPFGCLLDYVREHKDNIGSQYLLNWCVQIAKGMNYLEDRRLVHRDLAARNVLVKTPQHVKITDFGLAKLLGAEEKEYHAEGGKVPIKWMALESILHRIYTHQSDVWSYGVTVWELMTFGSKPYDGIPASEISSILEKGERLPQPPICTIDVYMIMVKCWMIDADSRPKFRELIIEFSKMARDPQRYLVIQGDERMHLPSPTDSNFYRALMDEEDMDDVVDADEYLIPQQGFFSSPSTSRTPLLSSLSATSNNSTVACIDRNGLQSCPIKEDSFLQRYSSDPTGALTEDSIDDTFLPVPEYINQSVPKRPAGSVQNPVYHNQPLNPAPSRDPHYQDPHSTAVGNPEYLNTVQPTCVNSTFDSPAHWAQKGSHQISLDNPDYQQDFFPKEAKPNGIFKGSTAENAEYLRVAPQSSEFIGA
In assay [8] the target is MAP kinase-activated protein kinase 2 (Homo sapiens) (UniProt P49137). Conditions: Compound concentration 1000.0 nM.
Chain of MAP kinase-activated protein kinase 2 (Homo sapiens) (P49137 whole entry, looked up): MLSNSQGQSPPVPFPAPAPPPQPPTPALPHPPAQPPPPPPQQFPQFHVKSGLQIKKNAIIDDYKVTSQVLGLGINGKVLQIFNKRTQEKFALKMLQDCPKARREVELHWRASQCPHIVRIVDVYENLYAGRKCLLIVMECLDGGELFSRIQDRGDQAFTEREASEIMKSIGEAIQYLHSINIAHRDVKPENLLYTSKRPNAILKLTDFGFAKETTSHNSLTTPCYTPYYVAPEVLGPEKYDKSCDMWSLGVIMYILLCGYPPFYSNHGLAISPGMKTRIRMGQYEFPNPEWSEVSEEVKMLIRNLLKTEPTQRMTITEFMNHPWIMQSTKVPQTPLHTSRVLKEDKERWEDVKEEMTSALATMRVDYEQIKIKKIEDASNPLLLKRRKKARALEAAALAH
Assay [9] has as its target Kappa-type opioid receptor (Homo sapiens) (UniProt P41145). Conditions: Compound concentration 10.0 uM.
The next assay deals with RS4-11. The assay is described as follows: CellTiter-Glo Luminescent Cell Viability Assay with RS4-11 cells (BCL-2 dependent cell line). Conditions: Homo sapiens. In kind it is functional, cell-based. A general note: In ATP-based viability assays light output follows the ATP content of the culture.
For another assay, the target named is D(3) dopamine receptor (Homo sapiens, UniProt P35462). The assay is described as follows: GPCRScan assay: inhibition of D3. Set-up: radioligand conc. used [nm] 0.5 – 1.8, parental cells HEKT.
The target of assay [10] is Induced myeloid leukemia cell differentiation protein Mcl-1 (Homo sapiens, UniProt Q07820). The assay is described as follows: Time-resolved fluorescence energy transfer (TR-FRET) with MCL1. A general note: Time-resolved FRET reads energy transfer from a long-lived donor to a nearby acceptor.
Assay [11] addresses 5-hydroxytryptamine receptor 6 (Homo sapiens) (UniProt P50406). Conditions: Compound concentration 10.0 uM.
The target of assay [12] is D(4) dopamine receptor (Homo sapiens) (UniProt P21917). Conditions: Compound concentration 10.0 uM.
In assay [13] the target is 5-hydroxytryptamine receptor 7 (Homo sapiens) (UniProt P34969). Conditions: Compound concentration 10.0 uM.
Assay [14] addresses Beta-3 adrenergic receptor (Homo sapiens) (UniProt P13945). Conditions: Compound concentration 10.0 uM.
The target in assay [15] is Sodium-dependent noradrenaline transporter (Homo sapiens) (UniProt P23975). Conditions: Compound concentration 10.0 uM.
Assay [16] addresses Beta-2 adrenergic receptor (Homo sapiens) (UniProt P07550). Conditions: Compound concentration 10.0 uM.
In assay [17] the target is T1, 5-hydroxytryptamine receptor 1A (Homo sapiens) (UniProt P08908).
T1 sequence (whole entry): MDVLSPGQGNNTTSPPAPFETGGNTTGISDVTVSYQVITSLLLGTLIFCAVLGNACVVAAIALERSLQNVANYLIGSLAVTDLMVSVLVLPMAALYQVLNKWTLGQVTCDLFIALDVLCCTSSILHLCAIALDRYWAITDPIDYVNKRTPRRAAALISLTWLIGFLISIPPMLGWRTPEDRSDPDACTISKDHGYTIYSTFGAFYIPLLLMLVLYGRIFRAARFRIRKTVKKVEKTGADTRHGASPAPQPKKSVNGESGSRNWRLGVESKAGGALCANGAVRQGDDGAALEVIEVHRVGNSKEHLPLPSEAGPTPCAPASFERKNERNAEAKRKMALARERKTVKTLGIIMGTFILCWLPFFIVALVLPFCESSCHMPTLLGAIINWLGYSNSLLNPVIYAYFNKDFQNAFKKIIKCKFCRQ
Conditions: Compound concentration 10.0 uM.

Assay [18] deals with Alpha-1D adrenergic receptor (Homo sapiens) (UniProt P25100). Conditions: Compound concentration 10.0 uM.
The subject of another assay is AMO1. The assay is described as follows: CellTiter-Glo Luminescent Cell Viability Assay ( MCL-1 dependent cell line AMO-1). In kind it is functional, cell-based. Conditions: Homo sapiens.

Chain of Casein kinase I isoform alpha (Homo sapiens) (P48729 2-337 limits assumed): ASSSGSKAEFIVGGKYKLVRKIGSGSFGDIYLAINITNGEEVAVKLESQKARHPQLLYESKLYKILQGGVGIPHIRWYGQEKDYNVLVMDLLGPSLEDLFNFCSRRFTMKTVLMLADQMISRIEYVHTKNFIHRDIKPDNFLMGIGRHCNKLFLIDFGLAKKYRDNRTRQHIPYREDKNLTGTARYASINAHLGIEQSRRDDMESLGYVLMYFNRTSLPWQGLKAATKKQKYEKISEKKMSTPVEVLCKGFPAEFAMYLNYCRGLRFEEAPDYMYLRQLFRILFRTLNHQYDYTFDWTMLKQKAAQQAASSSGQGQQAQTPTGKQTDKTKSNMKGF
Chain of Serine/threonine-protein kinase TAO2 (Homo sapiens) (Q9UL54 whole entry): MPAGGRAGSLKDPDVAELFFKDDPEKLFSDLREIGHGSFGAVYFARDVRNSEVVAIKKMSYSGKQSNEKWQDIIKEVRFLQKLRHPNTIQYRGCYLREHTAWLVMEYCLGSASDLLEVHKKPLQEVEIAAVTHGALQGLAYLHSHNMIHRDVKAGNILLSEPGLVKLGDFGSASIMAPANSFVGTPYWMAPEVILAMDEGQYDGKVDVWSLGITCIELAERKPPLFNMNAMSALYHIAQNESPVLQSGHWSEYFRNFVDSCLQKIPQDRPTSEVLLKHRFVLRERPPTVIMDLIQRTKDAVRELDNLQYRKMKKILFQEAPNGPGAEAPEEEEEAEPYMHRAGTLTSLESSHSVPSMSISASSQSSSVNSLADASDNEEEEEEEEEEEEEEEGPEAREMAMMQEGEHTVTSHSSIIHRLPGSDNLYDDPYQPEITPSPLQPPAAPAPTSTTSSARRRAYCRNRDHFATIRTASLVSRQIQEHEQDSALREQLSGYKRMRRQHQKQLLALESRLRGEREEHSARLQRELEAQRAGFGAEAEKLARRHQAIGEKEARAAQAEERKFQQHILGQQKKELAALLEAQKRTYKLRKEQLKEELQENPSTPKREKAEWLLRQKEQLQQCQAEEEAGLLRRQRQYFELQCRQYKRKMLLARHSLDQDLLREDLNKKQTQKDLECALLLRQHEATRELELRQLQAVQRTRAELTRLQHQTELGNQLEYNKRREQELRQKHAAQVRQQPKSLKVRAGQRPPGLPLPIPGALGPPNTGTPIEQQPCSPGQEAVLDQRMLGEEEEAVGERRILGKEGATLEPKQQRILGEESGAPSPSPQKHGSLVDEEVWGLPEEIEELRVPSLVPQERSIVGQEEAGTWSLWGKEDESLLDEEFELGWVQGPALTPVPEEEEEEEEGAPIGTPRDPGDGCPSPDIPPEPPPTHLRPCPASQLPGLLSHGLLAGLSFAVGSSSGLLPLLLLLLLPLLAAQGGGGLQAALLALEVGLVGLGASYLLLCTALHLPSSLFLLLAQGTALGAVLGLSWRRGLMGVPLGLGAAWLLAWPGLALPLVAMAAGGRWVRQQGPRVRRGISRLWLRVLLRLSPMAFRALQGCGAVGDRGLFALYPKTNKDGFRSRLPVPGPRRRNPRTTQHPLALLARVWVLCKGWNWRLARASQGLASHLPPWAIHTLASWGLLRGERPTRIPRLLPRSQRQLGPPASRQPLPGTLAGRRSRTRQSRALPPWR

On to `O=C(NS(=O)(=O)c1ccc(NCC2CCOCC2)c([N+](=O)[O-])c1)c1ccc(N2CCN(Cc3ccc(C(F)(F)F)cc3-c3ccc(Cl)cc3)CC2)cc1Oc1cnc2[nH]ccc2c1` [A-1210227], for which the residual activity is 82% in assay [1]; 96% in assay [3]; 88% in assay [4]; 100% in assay [5]; 88% in assay [7]; 81% in assay [8]. Moreover, the Ki in assay [2] (read-out: Ki) is 9.8 µM; in [2] (read-out: pKi (converted)) it was 9.77 µM; in assay [6], 10 µM; on D(3) dopamine receptor, 10 µM. In assay [9], the inhibition (in general, the drop in the measured response relative to a control, in per cent) is -0.08%. Further, the EC50 (as a rule, the concentration giving half of the maximal effect) in the assay with RS4-11 was > 5 µM (not active).

With `CO[C@H]1CC[C@H](CNc2ccc(S(=O)(=O)NC(=O)c3ccc(N4CCN(CC5=C(c6ccc(Cl)cc6)CC(C)(C)CC5)CC4)cc3Oc3cnc4[nH]ccc4c3)cc2[N+](=O)[O-])CC1` [A-1211212], the residual activity in assay [1] is 86%; in assay [3], 85%; in assay [4] it was 75%; in [5], 100%; in assay [7], 65%; in assay [8] it was 93%. For the same compound, in assay [10], the IC50 (in general, the concentration that gives 50% inhibition) is on record as 2.05 µM (not active). In addition, the inhibition is -8.56% in assay [11]; -4.72% in assay [12]; -7.24% in assay [13]; -6.65% in assay [14]; 39.5% in [15]; 21.3% in assay [16]. Besides, the inhibition in assay [17] is -7.27%; in [18], -9.01%. The EC50 in the assay with AMO1 is reported as > 1 µM (not active).
